Reference: patent US8759326B2, “Drug combinations containing PDE4 inhibitors and NSAIDs” (Boehringer Ingelheim International GmbH, priority 2009, dated 2014)

Columns and labels:
[1] = tested on: male Wistar rats; assay: Experiment 3: weight loss, leukocytosis and neutrophilia in rats, roflumilast with or without SC-560 or lumiracoxib; format: in vivo, rat
[2] = tested on: male Wistar rats; assay: Experiment 4: diarrhoea and mesentery histopathology in rats, roflumilast with or without SC-560 or lumiracoxib; format: in vivo, rat; settings: p.o. four days, roflumilast 10 mg/kg at 1300, SC-560 or lumiracoxib 2 mg/kg at 0800 and 1700, 95 hours after t0; for Diarrhoea: animals affected out of animals; for Mesentery: Proliferation of fibroblasts / Mesentery: multifocal perivascular mononuclear infiltration (=inflammation parameter): animals affected out of animals examined
Experimental: (§1) For pharmacokinetic analysis (determining the plasma levels of the substances) on day 4 one rat from each group was used; these rats were no longer available for other parameters under investigation.
(§2) At the end of the experiment (95 hours after t0 (=the time of the first administration on day 1, 0800 hours)) the rats from the individual groups were examined phenotypically and histopathologically for the presence of multifocal perivascular mononuclear infiltration (=inflammation parameter) in the mesentery and for the proliferation of fibroblasts in the mesentery. In addition, the occurrence of diarrhoea in the rats from the different groups was noted.

[3] = tested on: male Wistar rats; assay: Experiment 1: weight loss, leukocytosis and neutrophilia in rats, roflumilast with or without diclofenac
Experimental: For pharmacokinetic analysis (determining the plasma levels of the substances) on day 4 one rate from each group was used; these rats were no longer available for other parameters under investigation.
The average±standard deviation of the body weights at time t0 was 355±17 g.
At the end of the experiment (95 hours after t0 (=the time of the first administration on day 1, 0800)) the proportion of white blood cells (×1000 cells/μl blood, FIG. 1B, left-hand Figure) and the proportion of neutrophils (in % of white blood cells, FIG. 1B, right-hand Figure) were determined from the blood of 4 or 5 of the rats from the individual groups.

[4] = tested on: male Wistar rats; assay: Experiment 2: diarrhoea and mesentery histopathology in rats, roflumilast with or without diclofenac; settings: roflumilast 10 mg/kg p.o. daily; six rats per group; between day 4 and day 5
Experimental: as §1, §2

parameters measured after the administration of the NSAID alone, compared with control ([1]; 2 mg/kg p.o. at 0800 and 1700, four days)	SMILES	protective effect on roflumilast-mediated weight loss, leukocytosis and neutrophilia ([1]; SC-560 2 mg/kg p.o. at 0800 and 1700 co-administered with roflumilast 10 mg/kg, four days)	Diarrhoea [2]	parameters measured after the administration of the NSAID alone, compared with control ([3]; diclofenac 1 mg/kg p.o. at 0800 and 1700, four days)	Mesentery: Proliferation of fibroblasts [2]	Mesentery: multifocal perivascular mononuclear infiltration (=inflammation parameter) [2]	PDE4 inhibitor-mediated side effects such as weight loss, leukocytosis, neutrophilia and diarrhoea ([1]; FIG. 2A, 2B, p.o. four days, roflumilast 10 mg/kg, lumiracoxib 2 mg/kg twice daily)	death of rats [4]	death of rats ([3]; roflumilast 10 mg/kg p.o. daily, six rats per group, between day 4 and day 5)
	COc1ccc(-n2nc(C(F)(F)F)cc2-c2ccc(Cl)cc2)cc1 [SC-560]	absolutely no protective effect	0/6						
	O=C(O)Cc1ccccc1Nc1c(Cl)cccc1Cl [diclofenac]			very similar to the control groups					
very similar to the control groups	Cc1ccc(Nc2c(F)cccc2Cl)c(CC(=O)O)c1 [lumiracoxib]		0/6		0/5	0/5			
	O=C(Nc1c(Cl)cncc1Cl)c1ccc(OC(F)F)c(OCC2CC2)c1 [roflumilast]		2/6		5/5	5/5	observed	one rat	one rat
